Experimental data as given in US10369123B2, “Perk activator for the treatment of neurodegenerative diseases” (DEUTSCHES ZENTRUM FÜR NEURODEGENERATIVE ERKRANKUNGEN E.V. …, priority 2014, dated 2019).

Experiments:
pathological tau species = experiment: Immunoblot of tau species in P301S mouse brains; format: in vivo; conditions: P301S mice, 2 mg/kg i.p. once daily for 6 weeks from 17 weeks of age, vs saline
Protocol: For the efficacy trial in the late disease stage (Xu et al. 2014), P301S mice and wild type littermates received once daily i.p. injections of 2 mg/kg CCT020312 or saline from 17 to 22 weeks of age (n=12 for CCT020312 treated P301S mice, n=9 for other groups); they were analyzed with the Rotarod test in the 23rd week of age.
Twelve hours after the last injection, animals were anesthetized by i.p. injections of pentobarbital at (100 mg/kg) and transcardially perfused with 0.1 M phosphate buffer for 2 min, then fixed for 10 min with 4% paraformaldehyde. Post-fixation of the brain was done in 4% paraformaldehyde at 4° C. for 48 h. Their brains were prepared for histological analysis, as described (Xu et al. 2014). For the immunoblot analysis in P301S mice and wild type mice were sacrificed by cervical dislocation, their brains were frozen on dry ice and stored at −80° C. for Western blot analysis.
Frontal cortex tissue was dissected from the fresh-frozen sample on dry ice and suspended in 750 μl of T-PER Tissue Protein Extraction Reagent (Thermo Fisher Scientific) and 1× cOmplete Protease Inhibitor Cocktail Tablets (Hoffmann-La Roche) and 1× PhosSTOP Phosphatase Inhibitor Cocktail Tablets (Hoffmann-La Roche). The tissue piece was initially ground with a pestle inside a microcentrifuge tube on ice and then homogenized by sonification with Branson Sonifier 450 Analog (Branson, now Thermo Fisher Scientific) with 10×500 ms bursts at intensity level 3 on ice. […] Protein concentrations were determined using the BCA kit (Thermo Fisher Scientific) by heating the samples at 60° C. for 30 minutes and measuring the absorption on the NanoDrop 2000c spectrophotometer (Thermo Fisher Scientific).
20 μg of protein (200 μg for pPERK blots) were adjusted to equal concentrations between samples by dilution with M-PER and subsequently heated at 95° C. for 5 minutes with Roti®-Load 1 (Carl Roth). […] Chemiluminescence was detected with the Gel Doc™ XR System (BioRad) and analyzed with the Image Lab™ software (BioRad), followed by graphical and statistical analysis with Prism 6 (GraphPad Software).

PERK = biological target: T1, PERK (Homo sapiens, UniProt Q9NZJ5); conditions: Stockwell et al. 2012; cited from earlier work
T1 sequence (Q9NZJ5 30-1116): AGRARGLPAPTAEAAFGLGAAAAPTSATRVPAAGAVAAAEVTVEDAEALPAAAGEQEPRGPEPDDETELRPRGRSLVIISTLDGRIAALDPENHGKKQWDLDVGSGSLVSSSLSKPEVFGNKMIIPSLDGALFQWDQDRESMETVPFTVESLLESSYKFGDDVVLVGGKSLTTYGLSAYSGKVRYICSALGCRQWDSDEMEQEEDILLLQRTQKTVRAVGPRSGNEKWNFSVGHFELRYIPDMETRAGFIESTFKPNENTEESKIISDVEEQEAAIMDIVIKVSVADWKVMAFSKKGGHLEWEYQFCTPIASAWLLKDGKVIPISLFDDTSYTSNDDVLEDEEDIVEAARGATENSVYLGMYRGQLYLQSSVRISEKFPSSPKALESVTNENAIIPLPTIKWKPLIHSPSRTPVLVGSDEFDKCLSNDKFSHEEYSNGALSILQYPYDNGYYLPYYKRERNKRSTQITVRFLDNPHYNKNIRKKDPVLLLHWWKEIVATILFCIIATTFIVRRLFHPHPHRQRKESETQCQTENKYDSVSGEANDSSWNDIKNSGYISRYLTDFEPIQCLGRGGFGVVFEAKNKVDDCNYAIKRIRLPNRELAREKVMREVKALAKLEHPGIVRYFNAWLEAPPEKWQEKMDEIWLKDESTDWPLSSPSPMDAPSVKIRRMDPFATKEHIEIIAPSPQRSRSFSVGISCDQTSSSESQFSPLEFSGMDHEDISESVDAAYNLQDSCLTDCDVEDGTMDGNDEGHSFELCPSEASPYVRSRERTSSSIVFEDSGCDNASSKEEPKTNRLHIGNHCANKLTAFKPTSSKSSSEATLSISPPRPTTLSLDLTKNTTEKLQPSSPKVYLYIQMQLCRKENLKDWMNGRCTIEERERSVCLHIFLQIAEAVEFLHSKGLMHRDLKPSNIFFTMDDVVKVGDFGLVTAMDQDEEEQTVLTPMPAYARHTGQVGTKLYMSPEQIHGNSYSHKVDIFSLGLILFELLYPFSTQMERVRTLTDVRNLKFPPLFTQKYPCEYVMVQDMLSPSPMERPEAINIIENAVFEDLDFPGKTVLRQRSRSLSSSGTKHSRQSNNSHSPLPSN

Compound: CCN(CC)CCC(=O)N1N=C(c2c(-c3ccccc3)c3cc(Br)ccc3[nH]c2=O)CC1c1ccc(Br)cc1 (centres unmarked) [CCT020312, 6-bromo-3-[5-(4-bromo-phenyl)-1-(3-diethylamino-propionyl)-4,5-dihydro-1H-pyrazol-3-yl]-4-phenyl-1H-quinolin-2-one]
- AT180-immunoreactivity (paired helical filament tau), immunoblot (pathological tau species): decreased
- CP13-immunoreactivity (S202-phosphorylated tau), immunoblot (pathological tau species): decreased
- MC1-immunoreactivity (conformationally changed tau), immunoblot (pathological tau species): decreased
- EIF2A phosphorylation (PERK): increase
- other arms of the UPR (PERK): remained unaffected
